Reference: PubChem BioAssay AID1918938 (Molecular Pharmacology Branch, DTP, NCI, 2023)

Test system: 556581-035-R-J1-PDC complex spheroid viability
Assay: Anticancer human tumor 556581-035-R-J1-PDC patient-derived ovarian carcinoma cell line growth inhibition
Conditions: for IC50: curve of first compound; for viability, T/C: stronger effect = lower value
Summary of the method: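 Complex spheroids of tumor cells with HUVEC and human MSCs, exposed to iadademstat combined with other agents. Each agent tested in half-log steps from near clinical Cmax (else 10 microM top), DMSO ≤0.25%.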

[1] = second compound 0.1 µM, first compound 0.0316 µM
[2] = second compound 0.1 µM, first compound 0.1 µM
[3] = second compound 0.1 µM, first compound 0.316 µM
[4] = second compound 0.1 µM, first compound 1 µM
[5] = second compound 0.1 µM, first compound 3.16 µM
[6] = second compound 0.1 µM, first compound 10 µM
[7] = second compound 0.316 µM, first compound 0.0316 µM
[8] = second compound 0.316 µM, first compound 0.1 µM
[9] = second compound 0.316 µM, first compound 0.316 µM
[10] = second compound 0.316 µM, first compound 1 µM
[11] = second compound 0.316 µM, first compound 3.16 µM
[12] = second compound 0.316 µM, first compound 10 µM
[13] = second compound 1 µM, first compound 0.0316 µM
[14] = second compound 1 µM, first compound 0.1 µM
[15] = second compound 1 µM, first compound 0.316 µM
[16] = second compound 1 µM, first compound 1 µM
[17] = second compound 1 µM, first compound 3.16 µM
[18] = second compound 1 µM, first compound 10 µM
[19] = second compound 3.16 µM, first compound 0.0316 µM
[20] = second compound 3.16 µM, first compound 0.1 µM
[21] = second compound 3.16 µM, first compound 0.316 µM
[22] = second compound 3.16 µM, first compound 1 µM
[23] = second compound 3.16 µM, first compound 3.16 µM
[24] = second compound 3.16 µM, first compound 10 µM
[25] = second compound 10 µM, first compound 0.0316 µM
[26] = second compound 10 µM, first compound 0.1 µM
[27] = second compound 10 µM, first compound 0.316 µM
[28] = second compound 10 µM, first compound 1 µM
[29] = second compound 10 µM, first compound 3.16 µM
[30] = second compound 10 µM, first compound 10 µM
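Further: spheroids exposed to agents for seven days.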
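Wherever viability, T/C is given: 100% = DMSO vehicle control wells.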

| Structure (SMILES) | IC50 (second compound 0.1 µM) [µM] | IC50 (second compound 0.316 µM) [µM] | IC50 (second compound 1 µM) [µM] | IC50 (second compound 3.16 µM) [µM] | IC50 (second compound 10 µM) [µM] | viability, T/C [1] [%] | viability, T/C [2] [%] | viability, T/C [3] [%] | viability, T/C [4] [%] | viability, T/C [5] [%] | viability, T/C [6] [%] | viability, T/C [7] [%] | viability, T/C [8] [%] | viability, T/C [9] [%] | viability, T/C [10] [%] | viability, T/C [11] [%] | viability, T/C [12] [%] | viability, T/C [13] [%] | viability, T/C [14] [%] | viability, T/C [15] [%] | other results |
| --- | --- | --- | --- | --- | --- | --- | --- | --- | --- | --- | --- | --- | --- | --- | --- | --- | --- | --- | --- | --- | --- |
| CC1(C)CCC(CN2CCN(c3ccc(C(=O)NS(=O)(=O)c4ccc(NCC5CCOCC5)c([N+](=O)[O-])c4)c(Oc4cnc5[nH]ccc5c4)c3)CC2)=C(c2ccc(Cl)cc2)C1 + NC1CCC(NC2CC2c2ccccc2)CC1 | 4.38 | 3.5 | 4.18 | 3.83 | 2.92 | 80.7 | 86.4 | 80 | 82.8 | 65.8 | 9.71 | 79.9 | 93.8 | 89.5 | 84.9 | 54.1 | 7.68 | 74.2 | 90.7 | 88 | viability, T/C [16]: 70.8%; viability, T/C [17]: 64.5%; viability, T/C [18]: 10.5%; viability, T/C [19]: 79.2%; viability, T/C [20]: 77.1%; viability, T/C [21]: 77.5%; viability, T/C [22]: 70.6%; viability, T/C [23]: 58.6%; viability, T/C [24]: 11.8%; viability, T/C [25]: 75.4%; viability, T/C [26]: 77.3%; viability, T/C [27]: 73.5%; viability, T/C [28]: 59.9%; viability, T/C [29]: 52.4%; viability, T/C [30]: 7.8% |
| CC1COCCN1c1cc(C2(S(C)(=N)=O)CC2)nc(-c2ccnc3[nH]ccc23)n1 (stereo not given) + NC1CCC(NC2CC2c2ccccc2)CC1 | > 10 | > 10 | > 10 | > 10 | 6.32 | 96.9 | 90.1 | 81.8 | 77.5 | 71.2 | 60.3 | 87.8 | 90.2 | 78.7 | 70 | 55.6 | 53.9 | 80 | 88.5 | 73.4 | viability, T/C [16]: 65.3%; viability, T/C [17]: 58.1%; viability, T/C [18]: 53.8%; viability, T/C [19]: 93.5%; viability, T/C [20]: 77.8%; viability, T/C [21]: 79.4%; viability, T/C [22]: 67.2%; viability, T/C [23]: 55.8%; viability, T/C [24]: 60.5%; viability, T/C [25]: 67.5%; viability, T/C [26]: 73.5%; viability, T/C [27]: 69%; viability, T/C [28]: 66.1%; viability, T/C [29]: 48%; viability, T/C [30]: 49.3% |
